Laboratory results as given in the supplement of paper PMC10307832.

Experiments:
Assay in all cases: relative viability (nuclei count vs DMSO), 5 days (fraction); higher = more cells survive
KIN001-266 + Lapatinib = compound: CCN1CCC(CC1)N2C=C(N=N2)CNC3=CC4=C(C(=CN=C4C(=C3)Cl)C#N)NC5=CC(=C(C=C5)F)Cl [KIN001-266] + CS(=O)(=O)CCNCc1ccc(-c2ccc3ncnc(Nc4ccc(OCc5cccc(F)c5)c(Cl)c4)c3c2)o1 [Lapatinib] (partner 2 µM)
Method in brief: (§1)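 Dosing by pin tool came one day after lung cancer cell lines were seeded in 1536-well plates, using either one drug or a fixed anchor-drug dose plus five library-drug doses (not always all listed) in √10 steps. After 5 days, nuclei were counted on 4× images. Relative viability is treated-well nuclei count divided by vehicle-well nuclei count, and values are medians of duplicate plates.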

KIN001-266 + Crizotinib = compound: CCN1CCC(CC1)N2C=C(N=N2)CNC3=CC4=C(C(=CN=C4C(=C3)Cl)C#N)NC5=CC(=C(C=C5)F)Cl [KIN001-266] + C[C@@H](Oc1cc(-c2cnn(C3CCNCC3)c2)cnc1N)c1c(Cl)ccc(F)c1Cl [Crizotinib] (partner 1 µM)
Method in brief: as §1

KIN001-266 + Tozasertib = compound: CCN1CCC(CC1)N2C=C(N=N2)CNC3=CC4=C(C(=CN=C4C(=C3)Cl)C#N)NC5=CC(=C(C=C5)F)Cl [KIN001-266] + Cc1cc(Nc2cc(N3CCN(C)CC3)nc(Sc3ccc(NC(=O)C4CC4)cc3)n2)n[nH]1 [Tozasertib] (partner 0.1 µM)
Method in brief: as §1

KIN001-266 + Decitabine = compound: CCN1CCC(CC1)N2C=C(N=N2)CNC3=CC4=C(C(=CN=C4C(=C3)Cl)C#N)NC5=CC(=C(C=C5)F)Cl [KIN001-266] + Nc1ncn([C@H]2C[C@H](O)[C@@H](CO)O2)c(=O)n1 [Decitabine] (partner 2 µM)
Method in brief: as §1

Cell Line	relative viability (KIN001-266 + Lapatinib; first compound 0.08 µM)	relative viability (KIN001-266 + Lapatinib; first compound 0.253 µM)	relative viability (KIN001-266 + Lapatinib; first compound 0.8 µM)	relative viability (KIN001-266 + Lapatinib; first compound 2.53 µM)	relative viability (KIN001-266 + Lapatinib; first compound 8 µM)	relative viability (KIN001-266 + Crizotinib; first compound 0.08 µM)	relative viability (KIN001-266 + Crizotinib; first compound 0.253 µM)	relative viability (KIN001-266 + Crizotinib; first compound 0.8 µM)	relative viability (KIN001-266 + Crizotinib; first compound 2.53 µM)	relative viability (KIN001-266 + Crizotinib; first compound 8 µM)	relative viability (KIN001-266 + Tozasertib; first compound 0.08 µM)	relative viability (KIN001-266 + Tozasertib; first compound 0.253 µM)	relative viability (KIN001-266 + Tozasertib; first compound 0.8 µM)	relative viability (KIN001-266 + Tozasertib; first compound 2.53 µM)	relative viability (KIN001-266 + Tozasertib; first compound 8 µM)	relative viability (KIN001-266 + Decitabine; first compound 0.08 µM)	relative viability (KIN001-266 + Decitabine; first compound 0.253 µM)	relative viability (KIN001-266 + Decitabine; first compound 0.8 µM)	relative viability (KIN001-266 + Decitabine; first compound 2.53 µM)	relative viability (KIN001-266 + Decitabine; first compound 8 µM)
HCC-15	0.779	0.851	0.731	0.734	0.646	0.778	0.821	0.738	0.626	0.565	0.443	0.358	0.25	0.24	0.19	0.679	0.691	0.539	0.497	0.488
HCC-44	0.964	1.03	0.959	0.985	1.02	0.812	0.785	0.754	0.797	0.743	0.886	0.917	0.976	0.987	0.865	0.977	0.964	1.01	0.847	0.99
HCC-78	0.79	0.612	0.597	0.731	0.773	0.324	0.357	0.293	0.39	0.381	0.404	0.444		0.373	0.317	0.813	0.684	0.675	0.759	0.715
HCC-366	0.911	1.03	1	1.05	1.02	0.52	0.514	0.478	0.482	0.5	0.156	0.286	0.0999	0.127	0.111	0.359	0.362	0.221	0.346	0.317
HCC-827	0.2	0.18		0.191	0.217	0.944	0.921		0.931	0.849	0.442	0.432	0.41	0.359	0.389	0.327	0.382	0.153	0.28	0.268
IA-LM	0.967	0.752	0.989	0.861	0.474	0.885	0.748	0.693	0.753	0.585										
LCLC-103H						1.05	1.06	1.01	1.02	0.927	0.492	0.494	0.413	0.52	0.504	0.702	0.742	0.636	0.689	0.706
